Assay results reported in patent US20250199004A1, “METHODS OF EVALUATING TREATMENT OUTCOME IN HIGH GRADE SEROUS OVARIAN CANCER” (THE REGENTS OF THE UNIVERSITY OF COLORADO, A BODY CORPORATE, priority 2018, published 2025).

Columns and labels:
Type in all cases: cell-based, human
[1] = test system: aldehyde dehydrogenase (ALDH); test: Aldefluor assay with flow cytometry; settings: OVCAR4 cells, adherent and suspended, 7 days; negative control
Text: The panels of FIG. 9A and FIG. 9B are as follows. Panel A: CBX2-associated genes were cross-referenced with a gene set for stemness. Percentage indicates overlap of stemness gene set with CBX2-associated genes. Panel B: OVCAR4 cells grown in adherent and suspended settings for 7 days. Aldefluor assay and flow cytometry were utilized to determine the percentage of cells that were positive for aldehyde dehydrogenase (ALDH), a marker of stemness. […] Panel C: As above, OVCAR4 cells grown in adherent and suspended settings for 7 days. Bar graph compares the percentage of cells ALDH positive control (+DEAB) to cells without DEAB (experimental) in adherent and suspended settings. Statistical test=two-sided t-test. F Test p=0.1136. Panel D: OVCAR4 cells with shControl, shCBX2 #1 and #2 cultured in suspension over 7 days. Aldefluor assay and flow cytometry again utilized to determine the percentage of cells ALDH positive. Statistical test=two-sided t-test. F-test p=0.83 Panel E: Utilizing the TCGA (HGSOC, Nature, 2011, n=489) dataset, a scatter plot CBX2 expression was correlated to ALDH3A1 expression. Spearman correlation r=0.2123 and p-value<0.0001. Panel F: RT-qPCR of ALDH3A1 in OVCAR4 cells cultured in adherent and suspension conditions with CBX2 knockdown (shCBX2 #1). Statistical test =ANOVA. […]

[2] = test system: TMEFF1 expression in OVCAR4 cells; test: TMEFF1 (CBX2 target gene) expression by qPCR; settings: qPCR after treatment of OVCAR4 cells
Protocol: Ten candidate inhibitors were evaluated based on their ability to inhibit HGSOC cell viability. Dose response assays of all 10 inhibitors were conducted in OVCAR4, PEO1, and COV504 HGSOC cell lines to determine half inhibitory concentration (IC50) (FIG. 12 Panel A). We explored ability of these compounds to downregulate a CBX2 target gene, transmembrane protein with EGF-like and two follistatine-like domains 1 (TMEFF1) (FIG. 12 Panel B).
RNA was isolated using RNAeasy Plus Mini Kit (Qiagen, Hilden Germany) according to the manufacturer's protocol. NanoDrop spectrophotometry was used to measure concentration of extracted RNA. Luna Universal One-step RT qPCR kit (New England BioLabs, Ipswich, MA) was used on BioRad CFX96 (Bio-Rad, Hercules, CA). HPRT or GAPDH were used as internal control as stated in figure legend.

CBX2 = CBX2 knockdown confirmed via qPCR and immunoblots; settings: shRNA transduced into OVCAR4, PEO1 and OVCAR8 cells; vs shControl
Text: To further elucidate the role of CBX2 in HGSOC, we evaluated the impact of CBX2 modulation in PEO1, OVCAR4, and OVCAR8 HGSOC cell lines. One of the two independent small hairpin RNAs (shRNA) specific for CBX2 or a control (shControl) were transduced into OVCAR4, PEO1, and OVCAR8 cells. CBX2 knockdown was confirmed via quantitative PCR (qPCR) and immunoblots, with approximately 60% knockdown in the presence of shCBX2 #1 and 30% knockdown in the presence of shCBX2 #2 (FIG. 2A Panels C, D; and FIG. 3A Panels B-D). […] OVCAR4 and PEO1 CBX2 knockdown cells were plated in adherent (2D) conditions and for 96 h gLuc activity was measured every 24 h. […] OVCAR4 and PEO1 CBX2 knockdown cells were plated in forced suspension conditions and gLuc activity was monitored every 24 h for 96 h and cell viability was determined for cells grown in forced suspension. […] Spheroid diameter was measured for at least 50 spheroids in each condition and used as a surrogate for cell number. […]
Cell lysis was performed using radioimmunoprecipitation assay (RIPA) buffer (150 mM sodium chloride, Triton X-100, 0.5% sodium deoxycholate, 0.1% SDS [sodium dodecyl sulfate], 50 mM Tris, pH 8.0) supplemented with complete EDTA-free protease inhibitor cocktail (Roche), as well as NaF and NaV. Protein was quantified using bicinchoninic acid (BCA) protein assay (Thermo Fisher Scientific, Waltham, MA) and spectrophotometry. […]

CCN(CC)c1ccc(C=O)cc1 [DEAB, Diethylaminobenzaldehyde]
ALDH activity [1]: prevented the increase

CC(=O)Nc1ccc(OC[C@](C)(O)C(=O)Nc2ccc([N+](=O)[O-])c(C(F)(F)F)c2)cc1 [GTX-007]
TMEFF1 expression [2]: significantly inhibited

CCc1c(C(=O)C(N)=O)c2c(OCC(=O)O)cccc2n1Cc1ccccc1 [LY315920]
TMEFF1 expression [2]: significantly inhibited

Cc1nc2ccc(CN(C)c3ccc(C(=O)N[C@@H](CCC(=O)O)C(=O)O)s3)cc2c(=O)[nH]1 [raltitrexed]
TMEFF1 expression [2]: significantly inhibited

shCBX2 #1: CBX2-specific short hairpin RNA, GCCAAGGAAGCTCACTGCCAT (SEQ ID NO:19) (expressed or natural sequence; listed as Homo sapiens)
CBX2 knockdown (CBX2): approximately 60%

shCBX2 #2: CBX2-specific short hairpin RNA, ACGGAAAGGAACAGGAAGCAT (SEQ ID NO:20) (expressed or natural sequence; listed as Homo sapiens)
CBX2 knockdown (CBX2): ~30%
